Reference: PubChem BioAssay (NCI)
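Five compound concentrations were applied to cells in 96-well plates for 48 hours; endpoints were derived by simple linear interpolation of the resulting dose-response curve. Here, GI50 denotes the concentration required for 50% inhibition of growth. TGI denotes the concentration required for complete inhibition of growth.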

How the values were obtained:
Experiment in all cases: NCI-60 cell line screen, 48 h
[1] = system: PC-3 prostate
[2] = system: OVCAR-5 ovarian
[3] = system: SF-539 CNS
[4] = system: NCI-H226 lung
[5] = system: MCF7 breast
[6] = system: TK-10 renal
[7] = system: UO-31 renal
[8] = system: SK-MEL-2 melanoma
[9] = system: IGROV1 ovarian
[10] = system: DU-145 prostate
[11] = system: UACC-62 melanoma
[12] = system: HOP-62 NSCLC
[13] = system: MDA-MB-231 breast
[14] = system: SK-OV-3 ovarian
[15] = system: SR leukemia
[16] = system: NCI-H522 lung
[17] = system: CAKI-1 renal
[18] = system: SK-MEL-28 melanoma
[19] = system: SF-268 CNS
[20] = system: ACHN renal
[21] = system: K-562 leukemia
[22] = system: HS 578T breast
[23] = system: HT29 colon
[24] = system: M14 melanoma
[25] = system: NCI-H23 lung
[26] = system: BT-549 breast
[27] = system: SF-295 CNS
[28] = system: HCT-15 colon
[29] = system: UACC-257 melanoma

Compound: Cc1cc(Nc2ccc3c(c2)OCO3)c2cc3c(cc2n1)OCO3
- TGI [1]: 11.5 µM
- GI50 [2]: 4.24 µM
- TGI [2]: 41.1 µM
- GI50 [3]: 2.12 µM
- TGI [3]: 6.73 µM
- GI50 [4]: 2.94 µM
- TGI [4]: 16.4 µM
- GI50 [5]: 0.376 µM
- TGI [5]: 15 µM
- GI50 [6]: 5.62 µM
- TGI [6]: 32.5 µM
- GI50 [7]: 1.63 µM
- TGI [7]: 9.1 µM
- GI50 [8]: 4.54 µM
- TGI [8]: 21.5 µM
- GI50 [9]: 0.318 µM
- TGI [9]: 3.8 µM
- GI50 [10]: 2.91 µM
- TGI [10]: 12.3 µM
- GI50 [11]: 2.08 µM
- TGI [11]: 16.5 µM
- GI50 [12]: 3.84 µM
- TGI [12]: 20.3 µM
- GI50 [13]: 2.58 µM
- TGI [13]: 17 µM
- GI50 [14]: 3.22 µM
- TGI [14]: 30.1 µM
- GI50 [15]: 0.532 µM
- TGI [15]: > 84.4 µM
- GI50 [16]: 2.35 µM
- TGI [16]: 10 µM
- GI50 [17]: 2.55 µM
- TGI [17]: 30.7 µM
- GI50 [18]: 1.93 µM
- TGI [18]: 14.1 µM
- GI50 [19]: 3.69 µM
- TGI [19]: 19.3 µM
- GI50 [20]: 6.23 µM
- TGI [20]: 26.6 µM
- GI50 [21]: 1.24 µM
- TGI [21]: > 100 µM
- GI50 [22]: 1.08 µM
- TGI [22]: 5.35 µM
- GI50 [23]: 0.878 µM
- TGI [23]: 18.8 µM
- GI50 [24]: 1.19 µM
- TGI [24]: 6.99 µM
- GI50 [25]: 3.93 µM
- TGI [25]: 23.7 µM
- GI50 [26]: 4.26 µM
- TGI [26]: 26.2 µM
- GI50 [27]: 0.563 µM
- TGI [27]: 8.85 µM
- GI50 [28]: 0.9 µM
- TGI [28]: 16.6 µM
- GI50 [29]: 3.57 µM
- TGI [29]: 23.4 µM
